Patent publication US5340806A, “Composition containing organogermanium compound and immunity adjusting agent comprising the composition” (Sanwa Kagaku Kenkyusho Co., Ltd., priority 1984, dated 1994)
Like-named read-outs stand apart in the source and are kept apart here.

Legend:
[1] = tested on: NZB/W F1 mouse lymphocytes; assay: Antibody production in culture system of NZB/W F1 mouse lymphocytes; format: cell-based, NZB/W F1 male mice; settings: 1 to 2 μg/ml; FIG. 10a
[2] = tested on: positive Arthus reaction in guinea pigs; assay: Positive Arthus reaction in guinea pig; format: in vivo, Hartley male guinea pigs; settings: 30 days, FIG. 11
Method: To 2% egg albumin solution, the same amount of Freund's complete adjuvant was added to prepare an emulsion. The emulsion was injected in 4 times by one time/week to Hartley male guinea pigs at a heel, under the skin and in the femoralis muscle, for sensitization. After 10 days from the final sensitization, 0.1 ml of 1% egg albumin solution was injected under the skin of the back to measure the area of resulting edema. The organogermanium compound was orally dosed for 30 days from the first sensitization in an amount of 0.1, 1.0 and 10 mg/kg/day.

[3] = design: species or system human; settings: in vivo
Method: A capsule containing various amount of effective organogermanium compound were dosed to each of healthy adult persons to check kinetics of the drug. […] The excretion ratio of the drug in urine was 30-50% in cases of any dose.
Therefore, it has been judged that the influence of the hepatitis on pharmakinetics of the drug is small.

[4] = LD50 for beagle dog; settings: in vivo
[5] = tested on: chronic B hepatitis; format: in vivo, human patients
Method: (§1) Search on effectiveness of the organogermanium compound to chronic B and non A non B hepatitises and preferable amount of dose thereof.
Therefore, 30 mg, 60 mg and 90 mg/day/body were set. Experimental period of time was set for 12 weeks.
(a) Examination of liver functions (GOT, GPT, A 1-P, and γ-GTP), and
(b) Examination with use of HBV markers (HBe-Ag, HBe-Ab and DNA-P).

[6] = tested on: chronic non A non B hepatitis; assay: Chronic non A non B hepatitis, 30/60/90 mg/day, 12 weeks (Table 4B); format: in vivo, human patients
Method: as §1
Therefore, 30 mg, 60 mg and 90 mg/day/body were set. Experimental period of time was set for 12 weeks. […]

[7] = tested on: chronic B hepatitis; assay: Chronic B hepatitis, 16 weeks, 30 mg/day/body (In Vivo Utilization Example 5); design: species or system human patients
[8] = tested on: chronic non A non B hepatitis; assay: Long term dosing in chronic non A non B hepatitis (In Vivo Utilization Example 6); design: species or system human patients; settings: for Liver tissue improvement: Ballooning of cell: 4 patients; for Liver tissue improvement: Moderation of lobule: 8 patients; for Liver tissue improvement: Fatty degeneration: 9 patients; for Glisson's capsule improvement: Piecemeal necrosis: 13 patients; for Liver tissue improvement: Mobilization image of Kupfer cell: 16 patients; for Glisson's capsule improvement: Fibrosis / Glisson's capsule improvement: Round cell infiltration / Liver tissue improvement: Cobwebby necrosis / Liver tissue improvement: Degenerative necrosis in cell: 17 patients
Method: A capsule containing the organogermanium compound was dosed to patients infected with chronic non A non B hepatitis over a long period of time to check safety and effectiveness of the organogermanium compound.
(a) Number of patients for analyzation: 68 persons.
Group A: 39 persons (dose; 30 mg/day/body), and
Group B: 29 persons (dose; 60 mg/day/body).
(b) Mean dosing period of time
(c) Number of patients who continuously dose over 48 weeks

[9] = 30 mg/day, patients of total 35
[10] = 60 mg/day, patients of total 26

Substance: 3-oxygermylpropionic acid [Compound No. 1]
- antibody production ability [1]: an inhibition in antibody production ability
- inhibition of phlegmasia (edema area) ([2]; 0.1 mg/kg/day oral): a recognizable inhibition of the phlegmasia
- inhibition of phlegmasia (edema area) ([2]; 1 mg/kg/day oral): a recognizable inhibition of the phlegmasia
- excretion ratio of the drug in urine ([3]; human, po): 30-50%
- time to maximum plasma concentration ([3]; human, po): 3 h
- AUC versus dose [3]: AUC increases as the amount of dose increases
- AUC, Cmax and excretion ratio in urine, hepatitis patients versus healthy persons [3]: tended to increase
- plasma concentration on first day versus 7th day [3]: same level
- tendency to accumulate [3]: does not show a tendency to accumulate
- 15 mg/body as fraction of LD50 for beagle dog [4]: 1/12000
- Effectiveness (slight or more) ([5]; 30 mg/day): 55%
- General judgement: Improvement (slight or more) ([5]; 30 mg/day): 52%
- HBV markers: Improvement (slight or more) ([5]; 30 mg/day): 36%
- A 1-P change ([5]; 30 mg/day, 12 weeks): .dwnarw. *
- DNA-P change ([5]; 30 mg/day, 12 weeks): .dwnarw. +
- GOT change ([5]; 30 mg/day, 12 weeks): .dwnarw. *
- GPT change ([5]; 30 mg/day, 12 weeks): .dwnarw. +
- HBe-Ab change ([5]; 30 mg/day, 12 weeks): .uparw. *
- HBe-Ag (log conversion) change ([5]; 30 mg/day, 12 weeks): .dwnarw. **
- γ-GTP change ([5]; 30 mg/day, 12 weeks): .dwnarw. *
- Effectiveness (slight or more) ([5]; 60 mg/day): 47%
- General judgement: Improvement (slight or more) ([5]; 60 mg/day): 37%
- HBV markers: Improvement (slight or more) ([5]; 60 mg/day): 27%
- HBe-Ab change ([5]; 60 mg/day, 12 weeks): .uparw. +
- Effectiveness (slight or more) ([5]; 90 mg/day): 47%
- General judgement: Improvement (slight or more) ([5]; 90 mg/day): 43%
- HBV markers: Improvement (slight or more) ([5]; 90 mg/day): 15%
- HBe-Ab change ([5]; 90 mg/day, 12 weeks): .uparw. **
- Effectiveness (slight or more) ([6]; 30 mg/day): 31%
- General judgement: Improvement (slight or more) ([6]; 30 mg/day): 29%
- Safety (quite) ([6]; 30 mg/day): 92%
- Side effect ([6]; 30 mg/day): 8.3%
- Effectiveness (slight or more) ([6]; 60 mg/day): 44%
- General judgement: Improvement (slight or more) ([6]; 60 mg/day): 45%
- Safety (quite) ([6]; 60 mg/day): 91%
- Side effect ([6]; 60 mg/day): 8.8%
- A 1-P change ([6]; 60 mg/day, 12 weeks): .dwnarw. **
- GOT change ([6]; 60 mg/day, 12 weeks): .dwnarw. **
- GPT change ([6]; 60 mg/day, 12 weeks): .dwnarw. *
- Effectiveness (slight or more) ([6]; 90 mg/day): 38%
- General judgement: Improvement (slight or more) ([6]; 90 mg/day): 41%
- Safety (quite) ([6]; 90 mg/day): 90%
- Side effect ([6]; 90 mg/day): 10.0%
- suppressor T lymph cell and other CD8 positive cells ([7]; Two-color analysis): A significant reduction
- HBe antigen ([7]; after 8 and 12 weeks): A significant reduction of HBe antigen
- HBe antibody ([7]; after 8 weeks): Significant increase of HBe antibody
- patients changed to SC ([7]; among 33 HBe antigen positive): 2 Patients
- patients changed from positive to negative DNA-polymerase ([7]; end of experiment, 4 patients): 14%
- improvement in liver functions, HBe antigen positive versus negative groups ([7]; in vivo): no significant difference
- ratio of improvement in functions of liver ([7]; middle or more): 30%
- ratio of improvement in functions of liver ([7]; slight or more): 50%
- Ratio of improvement: Middle or more ([8]; 30 mg/day): 11.4%
- Ratio of improvement: Slight or more ([8]; 30 mg/day): 26.9%
- Getting worse (functions of liver) [8, 9]: 3
- Middle improved (functions of liver) [8, 9]: 2
- No change (functions of liver) [8, 9]: 20
- Remarkably improved (functions of liver) [8, 9]: 2
- Ratio of improvement: Middle or more ([8]; 60 mg/day): 34.3%
- Ratio of improvement: Slight or more ([8]; 60 mg/day): 57.7%
- Getting worse (functions of liver) [8, 10]: 0
- Middle improved (functions of liver) [8, 10]: 4
- No change (functions of liver) [8, 10]: 11
- Remarkably improved (functions of liver) [8, 10]: 3
- Liver tissue improvement: Evaluation ([8]; ≥middle, 1/17): 5.9%
- Liver tissue improvement: Bridging necrosis ([8]; ≥middle, 3 patients): 0%
- Liver tissue improvement: Ballooning of cell ([8]; ≥middle): 0%
- Liver tissue improvement: Moderation of lobule ([8]; ≥middle): 0%
- Liver tissue improvement: Fatty degeneration ([8]; ≥middle): 0%
- Glisson's capsule improvement: Piecemeal necrosis ([8]; ≥middle): 0%
- Liver tissue improvement: Mobilization image of Kupfer cell ([8]; ≥middle): 6.3%
- Glisson's capsule improvement: Fibrosis ([8]; ≥middle): 0%
- Glisson's capsule improvement: Round cell infiltration ([8]; ≥middle): 0%
- Liver tissue improvement: Cobwebby necrosis ([8]; ≥middle): 5.9%
- Liver tissue improvement: Degenerative necrosis in cell ([8]; ≥middle): 5.9%
- Liver tissue improvement: Ballooning of cell ([8]; ≥slight): 0. %
- Liver tissue improvement: Moderation of lobule ([8]; ≥slight): 12.5%
- Liver tissue improvement: Fatty degeneration ([8]; ≥slight): 22.2%
- Liver tissue improvement: Evaluation ([8]; ≥slight, 10/17): 58.8%
- Glisson's capsule improvement: Piecemeal necrosis ([8]; ≥slight): 38.5%
- Liver tissue improvement: Mobilization image of Kupfer cell ([8]; ≥slight): 50.0%
- Glisson's capsule improvement: Fibrosis ([8]; ≥slight): 5.9%
- Glisson's capsule improvement: Round cell infiltration ([8]; ≥slight): 17.6%
- Liver tissue improvement: Cobwebby necrosis ([8]; ≥slight): 52.9%
- Liver tissue improvement: Degenerative necrosis in cell ([8]; ≥slight): 52.9%
- modification or decomposition in contact with water (control composition (water)): a modification or decomposition occurs
- lapsed time at which disturbance in the absorption spectrum was first observed (control: water in lieu of serum albumin, 25° C): 24 h
- disturbance in the absorption spectrum (control: water, after 60 hours): the disturbance was further increased
